Drawing on patent US20140011799A1 (Bristol-Myers Squibb Company, priority 2012, published 2014), this text covers IC50 for 19 molecules.

A value given as a limit tells only on which side of the number the result lay.

Test [1] concerns the target T1, Endothelial lipase (EL) (Homo sapiens, UniProt Q9Y5X9).
T1 construct: HT-1080 cells that were transformed using RAGE technology (Athersys) to overexpress endogenous EL; endogenous in cells; conditioned medium used
T1 sequence (Q9Y5X9 21-500): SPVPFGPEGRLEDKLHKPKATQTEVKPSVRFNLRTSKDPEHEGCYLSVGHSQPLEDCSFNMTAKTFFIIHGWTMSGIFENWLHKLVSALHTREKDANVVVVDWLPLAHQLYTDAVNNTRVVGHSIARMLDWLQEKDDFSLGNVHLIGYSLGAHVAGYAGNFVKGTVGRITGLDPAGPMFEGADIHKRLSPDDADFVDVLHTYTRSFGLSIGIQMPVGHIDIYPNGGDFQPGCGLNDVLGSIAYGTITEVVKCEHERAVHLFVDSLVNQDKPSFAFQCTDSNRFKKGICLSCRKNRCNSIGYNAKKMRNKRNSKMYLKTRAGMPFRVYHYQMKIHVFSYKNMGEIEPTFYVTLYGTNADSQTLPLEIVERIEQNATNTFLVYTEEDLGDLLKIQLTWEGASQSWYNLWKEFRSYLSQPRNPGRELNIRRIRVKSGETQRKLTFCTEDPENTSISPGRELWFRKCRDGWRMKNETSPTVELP
Briefly: Endothelial lipase (EL) enzymatic assay, fluorescent substrate A10070 in DMPG vesicles. The format is biochemical. Particulars: EL from conditioned media of HT-1080 cells; compound preincubated 30 min at 37° C; read-out: EL IC50. In short, it runs like this:
(§1)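 Vesicles prepared: A10070 dried with DMPG, resuspended in HEPES pH 8.0/NaCl/EDTA, sonicated on ice. Enzyme incubated with compound 30 min at 37° C. Reaction started with 1:10 diluted vesicles. Fluorescence (490/530 nm) followed 60 min; slope from 300–900 secs gives rate.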

The target of test [2] is T2, hepatic lipase (HL) (Homo sapiens, UniProt P11150).
T2 construct: made in house; host or cells: COS cells (conditioned medium, partially purified)
T2 sequence (P11150 23-499): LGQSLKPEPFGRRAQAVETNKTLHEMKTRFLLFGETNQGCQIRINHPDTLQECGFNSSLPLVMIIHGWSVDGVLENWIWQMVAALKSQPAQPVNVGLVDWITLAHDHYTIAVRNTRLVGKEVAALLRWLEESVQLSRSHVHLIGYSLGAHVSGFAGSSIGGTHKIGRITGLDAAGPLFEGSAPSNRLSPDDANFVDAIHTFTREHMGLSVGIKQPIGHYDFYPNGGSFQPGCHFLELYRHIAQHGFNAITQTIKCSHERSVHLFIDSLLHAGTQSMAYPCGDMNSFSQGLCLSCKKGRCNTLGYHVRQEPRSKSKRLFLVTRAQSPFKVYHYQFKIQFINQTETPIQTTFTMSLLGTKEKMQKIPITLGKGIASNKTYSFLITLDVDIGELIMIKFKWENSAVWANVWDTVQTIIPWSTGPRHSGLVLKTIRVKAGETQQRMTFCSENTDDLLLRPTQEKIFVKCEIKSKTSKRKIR
As to the kind of experiment: Hepatic lipase (HL) enzymatic assay, fluorescent substrate A10070 in DMPG vesicles. The settings on record: HL partially purified from conditioned media of COS cells; compound preincubated 30 min at 37° C; read-out: HL IC50. The format is biochemical. In short, it runs like this: as §1

One may read the IC50 as the concentration that inhibits the measured activity by half. With `CC(C)(C)OC(=O)NS(=O)(=O)NCc1nnc(C(c2nc3ccc(-c4ccc(C(=O)N5CCOCC5)c(Cl)c4)cc3s2)S(=O)(=O)Cc2ccccc2)o1` (centres unmarked) [Example 147, 2-methyl-2-propanyl [({5-[(benzylsulfonyl){6-[3-chloro-4-(4-morpholinylcarbonyl)phenyl]-1,3-benzothiazol-2-yl}methyl]-1,3,4-oxadiazol-2-yl}methyl)sulfamoyl] carbamate], the IC50 in test [1] turned out to be 0.017 µM; in test [2], 0.626 µM.
On to `NS(=O)(=O)NCc1nnc(C(c2nc3ccc(-c4ccc(Cl)c(Cl)c4)cc3s2)S(=O)(=O)Cc2ccccc2)o1` (centres unmarked) [Example 148, N-((5-((benzylsulfonyl)(6-(3,4-dichlorophenyl)-1,3-benzothiazol-2-yl)methyl)-1,3,4-oxadiazol-2-yl)methyl)sulfamide], for which the IC50 in test [1] and in test [2] was less than 0.01 µM in each case.
`NS(=O)(=O)NCc1nnc(C(c2nc3ccc(-c4ccc(C(=O)N5CCOCC5)c(Cl)c4)cc3s2)S(=O)(=O)Cc2ccccc2)o1` (centres unmarked) [Example 149, N-((5-((benzylsulfonyl)(6-(3-chloro-4-(4-morpholinylcarbonyl)phenyl)-1,3-benzothiazol-2-yl)methyl)-1,3,4-oxadiazol-2-yl)methyl)sulfamide]: the IC50 in test [1] was less than 0.01 µM; in test [2], 0.121 µM.
For `C=CCS(=O)(=O)C(c1nnc(CNS(N)(=O)=O)o1)c1nc2ccc(-c3ccc(C(=O)N4CCOCC4)cc3)cc2s1` (centres unmarked) [Example 150, N-((5-((allylsulfonyl)(6-(4-(4-morpholinylcarbonyl)phenyl)-1,3-benzothiazol-2-yl)methyl)-1,3,4-oxadiazol-2-yl)methyl)sulfamide] the same measures were less than 0.01 µM and 0.56 µM.
On the same counts, the results for `COCCS(=O)(=O)C(c1nnc(CNS(N)(=O)=O)o1)c1nc2ccc(-c3cc(F)cc(Cl)c3)cc2s1` (centres unmarked) [Example 151, N-((5-((6-(3-chloro-5-fluorophenyl)-1,3-benzothiazol-2-yl)((2-methoxyethyl)sulfonyl)methyl)-1,3,4-oxadiazol-2-yl)methyl)sulfamide] are less than 0.01 µM and less than 0.01 µM.
Take `COCCS(=O)(=O)C(c1nnc(CNS(=O)(=O)NC(=O)OC(C)(C)C)o1)c1nc2ccc(-c3cc(F)cc(Cl)c3)cc2s1` (centres unmarked) [Example 153, tert-butyl (((5-((6-(3-chloro-5-fluorophenyl)-1,3-benzothiazol-2-yl)((2-methoxyethyl)sulfonyl)methyl)-1,3,4-oxadiazol-2-yl)methyl)sulfamoyl) carbamate]: the results for the IC50 in test [1] and in test [2] were 0.019 µM and 0.017 µM, respectively.
For `CC(C)C(O)C(=O)NCc1nnc(C(c2nc3ccc(-c4ccccc4)cc3s2)S(C)(=O)=O)o1` (centres unmarked) [Example 154, 2-hydroxy-3-methyl-N-((5-((methylsulfonyl)(6-phenyl-1,3-benzothiazol-2-yl)methyl)-1,3,4-oxadiazol-2-yl)methyl)butanamide] the same measures were 0.054 µM and 0.025 µM.
On the same counts, the results for `CC(C)(C)[C@H](O)C(=O)NCc1nnc(C(c2nc3ccc(-c4ccccc4)cc3s2)S(C)(=O)=O)o1` (stereo partly drawn) [Example 155, (2S)-2-hydroxy-3,3-dimethyl-N-((5-((methylsulfonyl)(6-phenyl-1,3-benzothiazol-2-yl)methyl)-1,3,4-oxadiazol-2-yl)methyl)butanamide] are 0.137 µM and 0.026 µM.
Take `CN(C)C(=O)O[C@H](C(=O)NCc1nnc(C(c2nc3ccc(-c4ccccc4)cc3s2)S(C)(=O)=O)o1)C(C)(C)C` (stereo partly drawn) [Example 156, (1S)-2,2-dimethyl-1-(((5-((methylsulfonyl)(6-phenyl-1,3-benzothiazol-2-yl)methyl)-1,3,4-oxadiazol-2-yl)methyl)carbamoyl) propyl dimethylcarbamate]: the values for the IC50 in test [1] and in test [2] were 0.057 µM and 0.071 µM, respectively.
For `CCOCC(=O)NCc1nnc(C(c2nc3ccc(-c4ccccc4)cc3s2)S(C)(=O)=O)o1` (centres unmarked) [Example 157, 2-ethoxy-N-((5-((methylsulfonyl)(6-phenyl-1,3-benzothiazol-2-yl)methyl)-1,3,4-oxadiazol-2-yl)methyl)acetamide] the same measures were 0.223 µM and 0.034 µM.
For `Cn1cc(-c2cc3sc(C(c4nnc(CNS(N)(=O)=O)o4)S(=O)(=O)Cc4ccccc4)nc3cc2F)cn1` (centres unmarked) [Example 158, N-((5-((benzylsulfonyl)(5-fluoro-6-(1-methyl-1H-pyrazol-4-yl)-1,3-benzothiazol-2-yl)methyl)-1,3,4-oxadiazol-2-yl)methyl) sulfamide] the same measures were less than 0.01 µM and 0.021 µM.
For the molecule `COc1cc2nc(C(c3nnc(CNS(=O)(=O)NC(=O)OC(C)(C)C)o3)S(C)(=O)=O)sc2cc1-c1cnn(C)c1` (centres unmarked) [Example 159, 2-methyl-2-propanyl {[(5-{[5-methoxy-6-(1-methyl-1H-pyrazol-4-yl)-1,3-benzothiazol-2-yl](methylsulfonyl)methyl}-1,3,4-oxadiazol-2-yl)methyl]sulfamoyl}carbamate], the IC50 in test [1] came to 0.013 µM; in test [2], 0.014 µM.
For `CS(=O)(=O)C(c1nnc(CC2SC(=O)NC2=O)o1)c1nc2cc(F)c(-c3ccccc3)cc2s1` (centres unmarked) [Example 160, 5-((5-((5-fluoro-6-phenyl-1,3-benzothiazol-2-yl)(methylsulfonyl)methyl)-1,3,4-oxadiazol-2-yl)methyl)-1,3-thiazolidine-2,4-dione] the same measures were less than 0.01 µM and 0.013 µM.
For `COC(=O)CCS(=O)(=O)C(c1nnc(CC2SC(=O)NC2=O)o1)c1nc2cc(F)c(-c3ccccc3)cc2s1` (centres unmarked) [Example 161, methyl 3-(((5-((2,4-dioxo-1,3-thiazolidin-5-yl)methyl)-1,3,4-oxadiazol-2-yl)(5-fluoro-6-phenyl-1,3-benzothiazol-2-yl)methyl)sulfonyl)propanoate] the same measures were less than 0.01 µM and less than 0.01 µM.
On the same counts, the results for `O=C1NC(=O)C(Cc2nnc(C(c3nc4ccc(-c5ccccc5)c(F)c4s3)S(=O)(=O)Cc3ccccc3)o2)S1` (centres unmarked) [Example 162, 5-((5-((benzylsulfonyl)(7-fluoro-6-phenyl-1,3-benzothiazol-2-yl)methyl)-1,3,4-oxadiazol-2-yl)methyl)-1,3-thiazolidine-2,4-dione] are less than 0.01 µM and less than 0.01 µM.
Regarding `CS(=O)(=O)C(c1nnc(CS(N)(=O)=O)o1)c1nc2c(F)cc(-c3ccccc3)cc2s1` (centres unmarked) [Example 163, 1-(5-((4-fluoro-6-phenyl-1,3-benzothiazol-2-yl)(methylsulfonyl)methyl)-1,3,4-oxadiazol-2-yl)methanesulfonamide], the IC50 in test [1] and in test [2] was less than 0.01 µM throughout.
Turning to `CS(=O)(=O)C(c1nnc(CC2SC(=O)NC2=O)o1)c1nc2cc(C(F)(F)F)c(-c3ccccc3)cc2s1` (centres unmarked) [Example 164, 5-((5-((methylsulfonyl)(6-phenyl-5-(trifluoromethyl)-1,3-benzothiazol-2-yl)methyl)-1,3,4-oxadiazol-2-yl)methyl)-1,3-thiazolidine-2,4-dione], the IC50 in test [1] is less than 0.01 µM; in test [2], 0.022 µM.
On the same counts, the results for `CC(C)Cn1cc(-c2cc(F)c3nc(C(c4nnc(CC5SC(=O)NC5=O)o4)S(=O)(=O)Cc4ccccc4)sc3c2)cn1` (centres unmarked) [Example 165, 5-((5-((benzylsulfonyl)(4-fluoro-6-(1-isobutyl-1H-pyrazol-4-yl)-1,3-benzothiazol-2-yl)methyl)-1,3,4-oxadiazol-2-yl)methyl)-1,3-thiazolidine-2,4-dione] are less than 0.01 µM and 0.024 µM.
On the same counts, the results for `Cn1cc(-c2cc3sc(C(c4nnc(CNC(=O)OC(C)(C)C)o4)S(=O)(=O)Cc4ccccc4)nc3cc2F)cn1` (centres unmarked) [Example 166, tert butyl ((5-((benzylsulfonyl)(5-fluoro-6-(1-methyl-1H-pyrazol-4-yl)-1,3-benzothiazol-2-yl)methyl)-1,3,4-oxadiazol-2-yl)methyl)carbamate] are 0.023 µM and 0.032 µM.
